One series concerns the target T1, α2C receptor (Homo sapiens, UniProt P18825).
T1 construct: host or cells: LM(tk-) cells, line L-α2C
T1 sequence (P18825 1-462): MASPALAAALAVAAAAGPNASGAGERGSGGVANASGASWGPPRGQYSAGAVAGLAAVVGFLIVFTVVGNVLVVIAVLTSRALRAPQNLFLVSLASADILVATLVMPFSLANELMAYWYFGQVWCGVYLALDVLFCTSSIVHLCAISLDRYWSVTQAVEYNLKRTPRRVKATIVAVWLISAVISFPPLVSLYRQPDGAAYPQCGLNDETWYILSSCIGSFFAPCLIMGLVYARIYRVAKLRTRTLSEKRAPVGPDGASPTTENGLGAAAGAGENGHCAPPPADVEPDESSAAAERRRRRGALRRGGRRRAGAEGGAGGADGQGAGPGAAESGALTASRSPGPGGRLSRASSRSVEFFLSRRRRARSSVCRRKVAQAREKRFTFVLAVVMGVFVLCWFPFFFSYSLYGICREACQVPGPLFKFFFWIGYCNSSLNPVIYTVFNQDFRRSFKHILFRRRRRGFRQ
Briefly: Competition binding, [3H]rauwolscine, human α2C receptor. An outline of the steps:
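LM(tk−) lysates, stable α2A/α2B/α2C transfectants; 25 mM glycylglycine pH 7.6 (RT). [3H]rauwolscine 0.5 nM, equilibrium competition; NSB 10 μM phentolamine. GF/B filtration, cell harvester.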

Where [1] appears, read: [3H]rauwolscine, human receptor, LM(tk-) cell lysates, mean, read-out: PKi alpha-2 2c (converted).
The mark [2] stands for this setting: [3H]rauwolscine, LM(tk-) cell line L-α2C, SEM and n in lines below, read-out: pKi alpha-2 2c (converted).
The mark [3] stands for this setting: [3H]rauwolscine, human α2C receptor, LM(tk-) cells, read-out: PKi alpha-2 2c (converted).

Where two headings read alike, the source gives them in different places.

This note sets out measurements from patent publication US6608086B2, “Dihydropyridines and new uses thereof” (Synaptic Pharmaceutical Corporation, priority 1993, dated 2003).

As for `CCC1=C(C(=O)NC)C(c2ccc([N+](=O)[O-])cc2)C(C(=O)NCCCN2CCC(C(=O)OC)(c3ccccc3)CC2)=C(CCCCOC)N1` (stereo not drawn) [Example 174, 6-Ethyl-1,4-dihydro-2-(4-methoxybutyl)-3-{N-[3-(4-methoxycarbonyl-4-phenylpiperidin-1-yl)propyl]}carboxamido-5-(N-methyl)carboxamido-4-(4-nitrophenyl)pyridine], the melting point fell in the range of 71 to 74 °C. Further, on α2C receptor (setting [1]), the Ki is 0.676 µM.
On to `CC1=C(C(N)=O)C(c2cccc([N+](=O)[O-])c2)C(C(=O)NCCCN2CCC(c3ccccc3)CC2)=C(C)N1` (stereo not drawn) [Example 62], for which the melting point is 92 to 96 °C. Besides, at α2C receptor (setting [2]), the Ki is 0.049 µM.
Turning to `CCC1=C(C(N)=O)C(c2ccc([N+](=O)[O-])cc2)C(C(=O)NCCCN2CCC(C(=O)OC)(c3ccccc3)CC2)=C(CCCCN)N1` (stereo not drawn) [Example 166, 2-(4-Aminobutyl)-5-carboxamido-6-ethyl-1,4-dihydro-3-{N-[3-(4-methoxycarbonyl-4-phenylpiperidin-1-yl)propyl]}carboxamido-4-(4-nitrophenyl)pyridine], the melting point fell in the range of 75 to 78 °C. Moreover, at α2C receptor (setting [1]), the Ki is 1.02 µM.
As for `CCC1=C(C(=O)NC)C(c2ccc([N+](=O)[O-])cc2)C(C(=O)NCCCN2CCC(c3ccccc3)(c3ccccc3)CC2)=C(COCCN)N1` (stereo not drawn) [Example 225, 2-((2-Aminoethyl)oxy)methyl-6-ethyl-1,4-dihydro-5-N-methylcarboxamido-4-(4-nitro)phenyl-3-(3-(N-(4,4-diphenylpiperidin-1-yl)propyl))carboxamidopyridine], the melting point was 115 °C (dec.). In addition, the Ki on α2C receptor (PKi alpha-2 2c) was 0.417 µM.
`COC(=O)C1(c2ccccc2)CCN(CCCNC(=O)C2=C(COCCCN)NC(C)=C(C(C)=O)C2c2ccc([N+](=O)[O-])cc2)CC1` (stereo not drawn) [Example 241, 5-Acetyl-2-((3-aminopropyl)oxy)methyl-1,4-dihydro-3-(N-(3-(4-methoxycarbonyl-4-phenylpiperidin-1-yl)propyl))carboxamido-6-methyl-4-(4-nitro)phenylpyridine]: the melting point is 70 °C (dec.). At α2C receptor (PKi alpha-2 2c), this compound gave a Ki of 0.398 µM.
`COC(=O)C1=C(C)NC(C)=C(C(=O)NCCCN2CCC(c3ccccc3)(c3ccccc3)CC2)C1c1cccc([N+](=O)[O-])c1` (stereo not drawn) [Example 249, 1,4-Dihydro-3-methoxycarbonyl-2,6-dimethyl-4-(3-nitrophenyl)-5-(N-(3-(4,4-diphenylpiperidin-1-yl)propyl)carboxamido)-pyridine]: the melting point is 192 to 193 °C. Also, on α2C receptor, the “PKi alpha-2 2c” value is reported as 6.25.
With `CC1=C(C(=O)NCCCN2CCC(c3ccccc3)CC2)C(c2ccc([N+](=O)[O-])cc2)c2c([nH]c(=O)[nH]c2=O)N1` (stereo not drawn) [Example 63, 1,4-Dihydro-6-methyl-4-(4-nitrophenyl)-5-{N-[3-(4-phenylpiperidin-1-yl)propyl]}carboxamido-[2,3, d]uracilylpyridine], the melting point lay in the range of 202 to 205 °C. For the same compound, the Ki at α2C receptor (setting [2]) is 0.17 µM.
The matching figures for `COC(=O)C1=C(C)NC(C)=C(C(=O)NCCCN2CCC(c3ccccc3)CC2)C1c1ccc(Cl)c([N+](=O)[O-])c1` (stereo not drawn) [Example 17, 4-(4-Chloro-3-nitrophenyl)-1,4-dihydro-3-methoxycarbonyl-2,6-dimethyl-5-(N-(3-(4-phenylpiperidin-1-yl)propyl)carboxamido)pyridine]: 191 to 192 °C and 0.0269 µM.
`CCC1=C(C(N)=O)C(c2ccc([N+](=O)[O-])cc2)C(C(=O)NCCCN2CCC(c3ccccc3)CC2)=C(CC)N1` (stereo not drawn) [Example 121, 5-Carboxamido-2,6-diethyl-1,4-dihydro-4-(4-nitrophenyl)-3-{N-[3-(4-phenylpiperidin-1-yl)propyl]}carboxamidopyridine] returned a melting point of 90 to 101 °C. Further, the Ki at α2C receptor ([3H]rauwolscine, human α2C receptor, LM(tk−) cells, read-out: pKi alpha-2 2c (converted)) was 0.191 µM.
As for `CCC1=C(C(=O)OC)C(c2ccc([N+](=O)[O-])cc2)C(C(=O)NCCCN2CCC(C(=O)OC)(c3ccccc3)CC2)=C(COCCN)N1` (stereo not drawn) [Example 235, 2-((2-Aminoethyl)oxy)methyl-6-ethyl-1,4-dihydro-5-methoxycarbonyl-3-(N-(3-(4-methoxycarbonyl-4-phenylpiperidin-1-yl)propyl))carboxamido-4-(4-nitro)phenylpyridine], the melting point is 140 °C (dec.). Further, the Ki on α2C receptor (PKi alpha-2 2c) was 1.02 µM.
Taken in the same sequence, the figures for `CCOC(=O)C1(c2ccccc2)CCN(CCCNC(=O)C2=C(COC)NC(CC)=C(C(=O)O)C2c2ccc([N+](=O)[O-])cc2)CC1` (stereo not drawn) [Example 240, 3-(N-3-(4-Ethoxycarbonyl-4-phenylpiperidin-1-yl)propyl)carboxamido-6-ethyl-1,4-dihydro-2-(methyloxy)methyl-4-(4-nitro)phenylpyridine-5-carboxylic Acid] were 116 to 126 °C and 11.7 µM.
Take `CC1=C(C(N)=O)C(c2ccc([N+](=O)[O-])cc2)C(C(=O)NCCCN2CCC(c3ccccc3)CC2)=C(C)N1` (stereo not drawn) [Example 60, 5-Carboxamido-1,4-dihydro-2,6-dimethyl-4-(4-nitrophenyl)-3-{N-[3-(4-phenylpiperidin-1-yl)propyl]}carboxamidopyridine]: the melting point lay within 100 to 105 °C. Besides, on α2C receptor (setting [2]), the Ki is 0.0676 µM.
`COC(=O)C1(c2ccccc2)CCN(CCCNC(=O)C2=C(CCCCN)NC(C)=C(C(C)=O)C2c2ccc([N+](=O)[O-])cc2)CC1` (stereo not drawn) [Example 178, 5-Acetyl-2-(4-aminobutyl)-1,4-dihydro-3-{N-[3-(4-methoxycarbonyl-4-phenylpiperidin-1-yl)propyl]}carboxamido-6-methyl-4-(4-nitrophenyl) pyridine]: the melting point was in the range of 62 to 65 °C. Moreover, the Ki on α2C receptor (setting [1]) is 0.398 µM.
In the case of `CCOC(=O)C1(c2ccccc2)CCN(CCCNC(=O)C2=C(COCCN)NC(C)=C(C(C)=O)C2c2ccc3c(c2)OCO3)CC1` (stereo not drawn) [Example 244, 5-Acetyl-2-((2-aminoethyl)oxy)methyl-3-(N-(3-(4-ethoxycarbonyl-4-phenylpiperidin-1-yl)propyl)) carboxamido-1,4-dihydro-6-methyl-4-(3,4-methylenedioxy) phenylpyridine], the melting point was 55 °C (dec.). Further, the Ki on α2C receptor (setting [3]) is 0.0977 µM.
In turn, `COC(=O)C1=C(C)NC(C)=C(C(=O)NCCCN2CCC(c3ccccc3)CC2)C1c1ccc2c(c1)OCO2` (stereo not drawn) [Example 250] yielded a melting point of 161 to 165 °C. The Ki at α2C receptor (setting [3]) is 0.0363 µM.
`CCC1=C(C(=O)NC)C(c2ccc([N+](=O)[O-])cc2)C(C(=O)NCCCN2CCC(c3ccccc3)(c3ccccc3)CC2)=C(CCCCOC)N1` (stereo not drawn) [Example 173, 6-Ethyl-1,4-dihydro-2-(4-methoxybutyl)-5-(N-methyl)carboxamido-4-(4-nitrophenyl)-3-{N-[3-(4,4-diphenylpiperidin-1-yl)propyl]}carboxamidopyridine]: the melting point was 98 to 102 °C. On α2C receptor (setting [1]), the Ki was 1.48 µM.
`COC(=O)C1=C(C)NC(C)=C(C(=O)NCCCN2CCC(c3ccccc3)CC2)C1c1ccc(C)cc1` (stereo not drawn) [Example 31, 1,4-Dihydro-3-methoxycarbonyl-2,6-dimethyl-4-(4-methylphenyl)-5-(N-(3-(4-phenylpiperidin-1-yl)propyl)carboxamido)pyridine]: the melting point is 139 to 139.5 °C. Besides, at α2C receptor (setting [2]), the Ki is 0.0525 µM.
`COC(=O)C1=C(C)NC(CCCCN)=C(C(=O)NCCCN2CCC(c3ccccc3)(c3ccccc3)CC2)C1c1ccc([N+](=O)[O-])cc1` (stereo not drawn) [Example 170, 2-(4-Aminobutyl)-1,4-dihydro-5-methoxycarbonyl-6-methyl-4-(4-nitrophenyl)-3-{N-[3-(4,4-diphenylpiperidin-1-yl)propyl]}carboxamidopyridine]: the melting point was in the range of 89 to 93 °C. For the same compound, the Ki on α2C receptor (PKi alpha-2 2c) is 4.9 µM.
As for `CC1=C(C(N)=O)C(c2ccc([N+](=O)[O-])cc2)C(C(=O)NCCCN2CCC(C(=O)O)(c3ccccc3)CC2)=C(C)N1` (stereo not drawn) [Example 210, 5-Carboxamido-3-{N-[3-(4-carboxy-4-phenylpiperidin-1-yl)propyl]}carboxamido-1,4-dihydro-2,6-dimethyl-4-(4-nitrophenyl)pyridine], the melting point is 208 to 210 °C. Moreover, the Ki on α2C receptor (PKi alpha-2 2c) is 21.9 µM.
In turn, `CCOC(=O)C1(c2ccccc2)CCN(CCCNC(=O)C2=C(COCCN)NC(CC)=C(C(=O)NC)C2c2ccc([N+](=O)[O-])cc2)CC1` (stereo not drawn) [Example 194, 2-[(2-Aminoethoxy)methyl]-3-{N-[3-(4-ethoxycarbonyl-4-phenylpiperidin-1-yl)propyl]}carboxamido-1,4-dihydro-6-ethyl-5-(N-methyl) carboxamido-4-(4-nitrophenyl) pyridine] showed a melting point of 51 to 53 °C. Besides, the Ki at α2C receptor (setting [1]) is 1.07 µM.
The matching figures for `CCC1=C(C(=O)NC)C(c2ccc([N+](=O)[O-])cc2)C(C(=O)NCCCN2CCC(C(=O)OC)(c3ccccc3)CC2)=C(COCCN)N1` (stereo not drawn) [Example 229, 2-((2-Aminoethyl)oxy)methyl-6-ethyl-1,4-dihydro-3-(N-(3-(4-methoxycarbonyl-4-phenylpiperidin-1-yl)propyl))carbo xamido-5-N-methylcarboxamido-4-(4-nitro)phenylpyridine]: 95 °C (dec.) and 0.891 µM.
